Measured values: patent US11559512B2, “Composition for prevention, alleviation, and/or treatment of heat illness” (priority 2017, dated 2023)
Entries after “also recorded” stand apart in the source; their conditions may differ. Where two headings read alike, the source gives them in different places.

Columns and labels:
[1] = tested on: human vascular endothelial cells (HUVECs)
Protocol: Then, 2 mL of trypsin/EDTA was added to the cells, and the cells were detached by incubation at 37° C. in a 5% CO2 environment. After the cell detachment, 5 mL/dish of a culture medium was added, and the cells were transferred to a 15-mL tube and centrifuged at 1200 rpm for 5 minutes in a centrifuge. The supernatant was removed, and then, the number of cells was adjusted to a cell density of 5×10^4 cells/mL using a cell counting kit by the addition of 5 mL of a culture medium. Then, two 6-well plates were used, and the solution with the adjusted HUVEC density was inoculated at 4 mL/well to 3 wells of each plate. Each phytochemical component was added at 4 μL (final concentration: 10 μM)/well to one well of each plate. Also, a phytochemical dissolving solution DMSO was added at 4 μL/well to the remaining wells to prepare a control. […]
Serial dilutions of auraptene were added to the cells, and the cell death of the HUVECs caused by heat stress was observed by crystal violet staining.

[2] = tested on: human vascular endothelial cells (HUVECs); assay: DiOC6 / PI staining and flow cytometry of HUVECs under heat stress load; format: cell-based; conditions: heat stress load 40° C. for 2 days, flow cytometry, vs DMSO
Protocol: Two days later, the culture solution of each well was removed with an aspirator. […] The supernatant was removed, and then, 5 mL of a culture medium at 37° C. was added to the cells and stirred. After the stirring, DiOC6 (final concentration: 80 nM) was added to each 15-mL tube and reacted at the same temperature as the culture temperature for 30 minutes.
The supernatant was removed, and then, 1 mL of a culture medium was added to the cells, and 2 μL of PI (Sigma-Aldrich Co. LLC) was added. The cells thus supplemented were transferred to a FACS tube and measured in a flow cytometer (BD).
In order to quantify the effects, the cytotoxicity suppressive effects of auraptene (component A) and tangeretin (component T) inhibiting the cell death caused by the load of heat stress were quantified using DiOC6 staining and flow cytometry as described above. The DiOC6 dye is a reagent for measuring mitochondrial activity and is a reagent that can perform measurement based on the attenuation of the amount of fluorescence by cytotoxicity (cell death, etc.).

[3] = tested on: fat droplets in human vascular endothelial cells (HUVECs); assay: Intracellular fat droplets, BODIPY staining, confocal microscopy; format: cell-based
Protocol: Then, nine 35-mm dishes were provided, and 2 mL/dish of the solution with the adjusted HUVEC density was inoculated. Auraptene (10 mM) and tangeretin (10 mM) were each added at 2 μL (final concentration: 10 μM)/dish to three dishes. Also, DMSO was added at 2 μL/dish to the remaining 3 dishes to prepare a control.
The supernatant of the HUVECs cultured in each 35-mm dish was removed, and 2 mL/dish of 4% paraformaldehyde in a phosphate buffer solution was added. The cells were left standing at room temperature for 1 hour for cell fixation. The solution was removed, and then, the cells were rinsed twice. 1 mL/dish of BODIPY diluted 2000-fold with a FACS buffer was added, and the cells were left standing at room temperature for 30 minutes in the dark for reaction.
The solution was removed, and then, the cells were rinsed twice. Two drops of Diamond Antifade Mountant with DAPI were added to the cells, and a round glass cover was put on the cells, followed by fluorescence photographing under a confocal laser scanning microscope.

ABCD3 = ABCD3 expression in HUVECs, antibody staining, confocal microscopy; format: cell-based, human; conditions: usual culture and heat stress load (40° C. for 3 days), vs DMSO
Protocol: (§1) Then, six 35-mm dishes were provided, and 2 mL/dish of the solution with the adjusted HUVEC density was inoculated. Auraptene (10 mM) and tangeretin (10 mM) were each added at 2 μL (final concentration: 10 μM)/dish to two dishes. Also, DMSO was added at 2 μL/dish to the remaining 2 dishes to prepare a control.
(§2) The supernatant of the HUVECs cultured in each 35-mm dish was removed, and 2 mL/dish of 4% paraformaldehyde in a phosphate buffer solution was added. The cells were left standing at room temperature for 1 hour.
(§3) The solution was removed, and then, the cells were rinsed twice. 2 mL/dish of 0.5% Triton-X00 (Wako Pure Chemical Industries, Ltd.) in PBS was added, and the cells were left standing at room temperature for 5 minutes. The solution was removed, and then, the cells were rinsed twice. 1 mL/dish of an anti-ABCD3 antibody, an anti-PPARα antibody or an anti-PPARγ antibody, each of which was diluted 150-fold with a FACS buffer, was added, and the cells were left standing at room temperature for 2 hours for reaction.
The solution was removed, and then, the cells were rinsed twice. […] Two drops of Diamond Antifade Mountant with DAPI were added to the cells, and a round glass cover was put on the cells, followed by fluorescence photographing under a confocal laser scanning microscope.

PPARγ = PPARγ expression in HUVECs, antibody staining, confocal microscopy; format: cell-based, human
Protocol: as §1, §2, §3
(§4) The solution was removed, and then, the cells were rinsed twice. 1 mL/dish of DyLight 649-labeled anti-Rabbit IgG antibody diluted 500-fold with a FACS buffer was added, and the cells were left standing at room temperature for 1 hour in the dark for reaction. The solution was removed, and then, the cells were rinsed twice. Two drops of Diamond Antifade Mountant with DAPI were added to the cells, and a round glass cover was put on the cells, followed by fluorescence photographing under a confocal laser scanning microscope.

PPARα = PPARα expression in HUVECs, antibody staining, confocal microscopy; format: cell-based, human
Protocol: as §1, §2, §3, §4

[4] = HUVECs, 40° C. for 2 days, final concentration 10 μM
[5] = Table 2 summary, HUVECs 40° C., 37° C. as comparative control
[6] = HUVECs, 40° C. and 1 day, 10 μM, vs DMSO

For C[N+](C)(C)C[C@H](O)CC(=O)[O-] [L-carnitine, reference compound], the “concentration at which the cell death suppressive effect was confirmed (value in brackets)” value ([1]; HUVECs, 40° C. for 3 days, crystal violet staining) was 15 mM, the “concentration at which the cell death suppressive effect was observed” value ([1]; HUVECs, 40° C. for 3 days, 0, 1.2 or 2.5 mg/ml) was 2.5 mg/mL and the “concentration required relative to auraptene” value ([1]; cell death suppressive effect, HUVECs 40° C.) was “approximately 25000 times”.

In the case of C[N+](C)(C)[C@@H](Cc1c[nH]c(=S)[nH]1)C(=O)[O-] [ergothioneine, reference compound], the “suppression of cytotoxicity caused by the load of heat stress (phase contrast microscopic observation)” value (“suppression of cytotoxicity caused” for short) [1, 4] is reported as “unable to suppress the cytotoxicity”.

In the case of COc1ccc(-c2cc(=O)c3c(OC)c(OC)c(OC)c(OC)c3o2)cc1 [tangeretin, 4′,5,6,7,8-pentamethoxyflavone], the “number of DiOC6 staining-positive cells (suppression of cytotoxicity, cell death)” value [2] is reported as “increased the number of DiOC6 staining-positive cells”, the “Cytotoxicity (cell death)” value [1] is reported as “Suppressed” and the “cell survival by crystal violet staining” value ([1]; HUVECs cultured at 40° C. for 3 days, vs DMSO) is reported as “evidently increased cell survival”. The “amount of fat droplets under heat stress load” value ([3]; HUVECs, 40° C. for 2 days, 10 μM, BODIPY, vs DMSO) was “decrease in the amount of fat droplets; also recorded: decreased the amount of fat droplets”, the “amount of fat droplets at usual culture” value ([3]; HUVECs, usual culture (37° C.), 10 μM, vs DMSO) was “no change in the amount of fat droplets” and the “Amount of fat droplets” value [3, 5] was “Decreased”. For the same compound, the “change in the expression of ABCD3” value (ABCD3) was “change in the expression of ABCD3 was not observed”, the “expression of PPARγ” value (PPARγ; [6]) was “increasing effect was not observed” and the PPARγ (PPARγ; [5]) was “Increased”. For the same compound, the “expression of PPARα” value (PPARα; [6]) was “increase in the expression of PPARα” and the PPARα (PPARα; [5]) was “Increased”.

With CC(C)(Oc1ccc(CCNC(=O)c2ccc(Cl)cc2)cc1)C(=O)O [bezafibrate, reference compound] the “suppression of cytotoxicity caused” value [1] was “unable to suppress the cytotoxicity”.

With COc1ccc(-c2cc(=O)c3c(OC)c(OC)c(OC)c(OC)c3o2)cc1OC [nobiletin, reference compound] the “suppression of cytotoxicity caused” value [1, 4] was “unable to suppress the cytotoxicity”.

In the case of Oc1ccc(C=Cc2cc(O)cc(O)c2)cc1 [resveratrol, reference compound], the “suppression of cytotoxicity caused” value [1] is reported as “unable to suppress the cytotoxicity”.

C[S+]([O-])CCCCN=C=S (centres unmarked) [sulforaphane, reference compound] was tested, and the “suppression of cytotoxicity caused” value [1] was “unable to suppress the cytotoxicity”.

In the case of COc1ccc2ccc(=O)oc2c1CC=C(C)C [osthol, reference compound], the “suppression of cytotoxicity caused” value [1, 4] is reported as “unable to suppress the cytotoxicity”.
